Data reported in patent US10023591B2, “Heterocyclic derivatives and use thereof” (C&C RESEARCH LABORATORIES, priority 2014, dated 2018).
Like-named read-outs stand apart in the source and are kept apart here.

How the values were obtained:
[1] = tested on: STAT3; assay: STAT3 reporter gene assay (luciferase), LNCaP stable cell line pSTAT3-TA-luc, IL-6 stimulation; format: cell-based, human
Experimental: 1-1) Experiment on the Inhibition of STAT3 Activity
A human prostate cancer cell line (LNCaP stable cell line; plasmid pSTAT3-TA-luc), which contains a stably operating STAT3 promoter, was cultured in RPMI1640 medium (Cat No. 11875, Life Technologies) containing 10% fetal bovine serum (FBS) (Cat No. SH30396, Thermo Scientific) and 150 μg/mL G-418 solution (Cat No. 04 727 894 001, Roche). The reporter gene assay using LNCaP stable cell line was performed in RPMI1640 medium containing 3% DCC-FBS without G-418 solution. LNCaP stable cells were plated in two (2) white 96-well plates with 30,000 cells/50 μL in each well. The cells were cultured at 37° C., under 5% CO2 for 24 hours, and then treated with the compounds listed in Examples which were diluted in various concentrations. Subsequently, IL-6 was added to each well with a final concentration of 10 ng/mL. Upon completion of the treatment with the compounds and IL-6, the cells were cultured at 37° C., under 5% CO2 for 24 hours. The plates were observed under microscope and drug precipitation and particular findings were investigated and recorded.
(§1) The luciferase assay and the cell viability assay were performed respectively with one of the two plates. For the luciferase assay, the liquid media in the 96-well plate was removed, and then, 20 μL, of passive cell lysis buffer was added to each well. After shaking the plate for 30 minutes, luciferase activities of each well were measured in a PHERAstar™ microplate reader (BMG LABTECH) using a luciferase assay system (Cat No. E1501, Promega). For the cell viability assay, the 96-well plate was placed at room temperature for 30 minutes, added with 20 μL/well of CellTiter-Glo solution (Cat No. G7573, Promega), and shaken for 10 minutes in order to measure cytotoxicity caused by the compounds listed in Examples with a PHERAstar™ microplate reader (BMG LABTECH). Wells without 0.1% DMSO and stimulation were used as a negative control and wells with 0.1% DMSO and stimulation were used as a positive control.
(§2) The results of evaluation on the inhibitory effect of the compounds listed in the Examples on the dimerization of STAT3 and STAT1 obtained via the STAT3 and STAT1 reporter gene assays are shown in Table 9 below.

[2] = tested on: STAT1; assay: STAT1 reporter gene assay (luciferase), U2OS stable cell line pGL4-STAT1-TA-luc, IFN-γ stimulation; format: cell-based, human; conditions: IFN-γ 50 ng/mL, 8 hours, read-out: IC50 (μM) pSTAT1
Experimental: 1-2) Experiment on the Inhibition of STAT1 Activity
A human osteosarcoma cell line (U2OS stable cell line; pGL4-STAT1-TA-luc), which contains a stably operating STAT1 promoter, was cultured in McCoy 5′A medium (Cat No. 16600, Life Technologies) containing 10% FBS (Cat No. SH30396, Thermo Scientific) and 1000 μg/mL G418 solution (Cat No. 04 727 894 001, Roche). The reporter gene assay using U2OS stable cell line was performed in McCoy 5′A medium containing 10% FBS without G-418 solution. U2OS stable cells were plated in two (2) white 96-well plates with 25,000 cells/50 pt in each well. The cells were cultured at 37° C., under 5% CO2 for 24 hours, and then treated with the compounds listed in Examples which were diluted in various concentrations. Subsequently, IFN-γ was added to each well with a final concentration of 50 ng/mL. Upon completion of the treatment with the compounds and IFN-γ, the cells were cultured at 37° C., under 5% CO2 for 8 hours. The plates were observed under microscope and drug precipitation and particular findings were investigated and recorded.
as §1, with “of” for “of the”, “μL” for “μL,”
as §2

Molecule | IC50 ([1]; Homo sapiens) | IC50 ([2]; Homo sapiens) | IC50 [1] | IC50 [2]
CC(C)(c1ccc2sc(C(=O)Nc3cc(Cl)cc(Oc4ccc(Cl)nc4)c3)cc2c1)S(C)(=O)=O [Example 60, N-(3-chloro-5-((6-chloropyridin-3-yl)oxy)phenyl)-5-(2-(methylsulfonyl)propan-2-yl)benzo[b]thiophene-2-carboxamide] | 0.12 µM | > 50 µM | – | –
COC(=O)c1cc(Oc2cc(NC(=O)c3cc4cc(C(C)(C)S(C)(=O)=O)ccc4s3)cc(Cl)n2)no1 [Example 118, methyl 3-((6-chloro-4-(5-(2-(methylsulfonyl)propan-2-yl)benzo[b]thiophene-2-carboxamido)pyridin-2-yl)oxy)isoxazole-5-carboxylate] | 6 µM | 8.6 µM | – | –
CC(C)(c1ccc(Cl)cc1)c1cc(Cl)cc(NC(=O)c2cc3ccc(C(C)(C)S(C)(=O)=O)cc3[nH]2)c1 [Example 35, N-(3-chloro-5-(2-(4-chlorophenyl)propan-2-yl)phenyl)-6-(2-(methylsulfonyl)propan-2-yl)-1H-indole-2-carboxamide] | 0.1 µM | > 50 µM | – | –
COc1cc(OC(F)(F)F)cc(C(C)(C)c2cc(Cl)cc(NC(=O)c3cc4cc(C(C)(C)S(C)(=O)=O)ccc4s3)c2)c1 [Example 7, N-(3-chloro-5-(2-(3-methoxy-5-(trifluoromethoxy)phenyl)propan-2-yl)phenyl)-5-(2-(methylsulfonyl)propan-2-yl)benzo[b]thiophene-2-carboxamide] | 0.0088 µM | > 50 µM | – | –
CCCOc1cc(OC(F)(F)F)cc(C(C)(C)c2cc(Cl)cc(NC(=O)c3cc4cc(C(C)(C)S(C)(=O)=O)ccc4s3)c2)c1 [Example 2, N-(3-chloro-5-(2-(3-propoxy-5-(trifluoromethoxy)phenyl)propan-2-yl)phenyl)-5-(2-(methylsulfonyl)propan-2-yl)benzo[b]thiophene-2-carboxamide] | 0.008 µM | > 50 µM | – | –
CC(C)(c1ccc2sc(C(=O)Nc3cc(Cl)nc(OC4CCN5CCCC5C4)c3)cc2c1)S(C)(=O)=O (centres unmarked) [Example 102, N-(2-chloro-6-((octahydroindolizin-7-yl)oxy)pyridin-4-yl)-5-(2-(methylsulfonyl)propan-2-yl)benzo[b]thiophene-2-carboxamide] | 2.1 µM | 14.5 µM | – | –
COc1ccc(C(C)(C)c2cc(Cl)cc(NC(=O)c3cc4cc(C(C)(C)S(C)(=O)=O)ccc4s3)c2)s1 [Example 29, N-(3-chloro-5-(2-(5-methoxythiophen-2-yl)propan-2-yl)phenyl)-5-(2-(methylsulfonyl)propan-2-yl)benzo[b]thiophene-2-carboxamide] | 0.0041 µM | > 50 µM | – | –
COc1sccc1C(C)(C)c1cc(Cl)cc(NC(=O)c2cc3cc(C(C)(C)S(C)(=O)=O)ccc3s2)c1 [Example 30, N-(3-chloro-5-(2-(2-methoxythiophen-3-yl)propan-2-yl)phenyl)-5-(2-(methylsulfonyl)propan-2-yl)benzo[b]thiophene-2-carboxamide] | 0.0013 µM | > 50 µM | – | –
CC(C)(c1cc(Br)cc(NC(=O)c2cc3cc(C(C)(C)S(C)(=O)=O)ccc3s2)c1)c1cc(OC(F)(F)F)cc(OC(F)(F)C(F)F)c1 [Example 4, N-(3-bromo-5-(2-(3-(1,1,2,2-tetrafluoroethoxy)-5-(trifluoromethoxy)phenyl)propan-2-yl)phenyl)-5-(2-(methylsulfonyl)propan-2-yl)benzo[b]thiophene-2-carboxamide] | 0.0091 µM | > 50 µM | – | –
CC(C)(c1ccc(Cl)cc1)c1cc(Cl)cc(NC(=O)c2cc3cc(C(C)(C)S(C)(=O)=O)ncc3s2)c1 [Example 26, N-(3-chloro-5-(2-(4-chlorophenyl)propan-2-yl)phenyl)-5-(2-(methylsulfonyl)propan-2-yl)thieno[2,3-c]pyridine-2-carboxamide] | 0.065 µM | > 50 µM | – | –
N-(3-chloro-5-(2-(3-chloro-5-methoxyphenyl)propan-2-yl)phenyl)-5-(2-(methylsulfonyl)propan-2-yl)benzo[b]thiophene-2-carboxamide [Example 55] | – | – | 0.0022 µM | > 50 µM
CC(C)(c1cc(Cl)cc(NC(=O)c2cc3cc(C(C)(C)S(C)(=O)=O)ccc3s2)c1)c1cc(OC(F)(F)F)cc(OC(F)(F)C(F)F)c1 [Example 5, N-(3-chloro-5-(2-(3-(1,1,2,2-tetrafluoroethoxy)-5-(trifluoromethoxy)phenyl)propan-2-yl)phenyl)-5-(2-(methylsulfonyl)propan-2-yl)benzo[b]thiophene-2-carboxamide] | 0.028 µM | > 50 µM | – | –
CC(C)c1ccc(C(C)(C)c2cc(Cl)cc(NC(=O)c3cc4cc(C(C)(C)S(C)(=O)=O)ccc4s3)c2)s1 [Example 28, N-(3-chloro-5-(2-(5-isopropylthiophen-2-yl)propan-2-yl)phenyl)-5-(2-(methylsulfonyl)propan-2-yl)benzo[b]thiophene-2-carboxamide] | 0.0085 µM | > 50 µM | – | –
COc1cc(OC(F)(F)F)cc(C(C)(C)c2cccc(NC(=O)c3cc4cc(C(C)(C)S(C)(=O)=O)ccc4s3)c2)c1 [Example 3, N-(3-(2-(3-methoxy-5-(trifluoromethoxy)phenyl)propan-2-yl)phenyl)-5-(2-(methylsulfonyl)propan-2-yl)benzo[b]thiophene-2-carboxamide] | 0.0098 µM | > 50 µM | – | –
CC(C)(c1cc(Cl)cc(NC(=O)c2cc3cc(C(C)(C)S(C)(=O)=O)ccc3s2)c1)c1cc(OCCN2CCOCC2)cc(OC(F)(F)F)c1 [Example 8, N-(3-chloro-5-(2-(3-(2-morpholinoethoxy)-5-(trifluoromethoxy)phenyl)propan-2-yl)phenyl)-5-(2-(methylsulfonyl)propan-2-yl)benzo[b]thiophene-2-carboxamide] | 0.061 µM | > 50 µM | – | –
CCOc1cc(OC(F)(F)F)cc(C(C)(C)c2cc(Cl)cc(NC(=O)c3cc4cc(C(C)(C)S(C)(=O)=O)ccc4s3)c2)c1 [Example 1, N-(3-chloro-5-(2-(3-ethoxy-5-(trifluoromethoxy)phenyl)propan-2-yl)phenyl)-5-(2-(methylsulfonyl)propan-2-yl)benzo[b]thiophene-2-carboxamide] | 0.0076 µM | > 50 µM | – | –
CC#Cc1cc(OC(F)(F)F)cc(C(C)(C)c2cc(Cl)cc(NC(=O)c3cc4cc(C(C)(C)S(C)(=O)=O)ccc4s3)c2)c1 [Example 87, N-(3-chloro-5-(2-(3-(prop-1-yn-1-yl)-5-(trifluoromethoxy)phenyl)propan-2-yl)phenyl)-5-(2-(methylsulfonyl)propan-2-yl)benzo[b]thiophene-2-carboxamide] | 0.0097 µM | > 50 µM | – | –
CC(C)(c1ccc2sc(C(=O)Nc3cc(Oc4ccc(Cl)cc4)cc(N4CCC4)c3)cc2c1)S(C)(=O)=O [Example 59, N-(3-(azetidin-1-yl)-5-(4-chlorophenoxy)phenyl)-5-(2-(methylsulfonyl)propan-2-yl)benzo[b]thiophene-2-carboxamide] | 0.31 µM | > 50 µM | – | –
CC(C)(c1ccc2sc(C(=O)Nc3cc(Cl)nc(Oc4ccc(Cl)nc4)c3)cc2c1)S(C)(=O)=O [Example 65, N-(2-chloro-6-((6-chloropyridin-3-yl)oxy)pyridin-4-yl)-5-(2-(methylsulfonyl)propan-2-yl)benzo[b]thiophene-2-carboxamide] | 0.079 µM | > 50 µM | – | –
